Here are results for 2 compounds from PMC7734281, “Functionalized Oxoindolin Hydrazine Carbothioamide Derivatives as Highly Potent Inhibitors of Nucleoside Triphosphate Diphosphohydrolases” (Frontiers in Pharmacology, 2020).

One test has as its target T1, h-NTPDase1 (Homo sapiens, UniProt P49961).
T1 construct: made in house; host or cells: COS-7 cells, transient transfection; crude protein extract after sonication
T1 sequence (P49961 1-510): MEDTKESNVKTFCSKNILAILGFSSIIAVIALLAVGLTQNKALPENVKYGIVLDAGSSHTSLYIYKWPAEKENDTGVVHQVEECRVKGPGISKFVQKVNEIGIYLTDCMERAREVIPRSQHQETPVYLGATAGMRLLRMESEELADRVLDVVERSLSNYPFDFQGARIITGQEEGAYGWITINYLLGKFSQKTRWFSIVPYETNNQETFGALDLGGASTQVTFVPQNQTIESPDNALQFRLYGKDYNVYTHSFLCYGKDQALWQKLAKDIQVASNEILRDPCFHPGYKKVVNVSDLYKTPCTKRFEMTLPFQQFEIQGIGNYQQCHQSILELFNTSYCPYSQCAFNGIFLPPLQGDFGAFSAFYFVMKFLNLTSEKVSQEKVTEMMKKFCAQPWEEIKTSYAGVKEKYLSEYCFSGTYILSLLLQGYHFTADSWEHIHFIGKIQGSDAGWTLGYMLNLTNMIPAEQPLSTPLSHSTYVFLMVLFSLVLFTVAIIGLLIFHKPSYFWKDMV
More on the design: method as in Lecka et al., 2013. As to conditions: selective inhibitor of h-NTPDase1; ref Lecka et al., 2013; cited from earlier work.

Another test has as its system mice pancreatic islets. Briefly: Glucose stimulated insulin secretion in isolated mice islets (ELISA). It counts as cell-based, BALB/c mice. As to conditions: 16.7 mM glucose, compound 200 µM, 1 h, 37°C. As for the experimental part:
Six to eight week old BALB/c mice, weighing 30–40 g, were used in the study. These mice were obtained from the animal house of COMSATS University Islamabad, Abbottabad Campus and placed under standard temperature (25 ± 2°C) and humidity (50–55%) conditions with an alternate 12-h light/dark cycle. All the experimental animals were provided with a continuous supply of food and water. The animals were handled according to internationally accepted guidelines of animal care and use. Moreover, this study was reviewed and approved by Research Ethics Committee, Department of Pharmacy, COMSATS University Islamabad, Abbottabad Campus. (Protocol number: PHM.Eth./CS-M01-020-1609)
The islets were isolated from mice pancreas as previously described, by a process involving collagenase digestion ([Hameed et al., 2018]). Briefly, mice were anesthetized with sodium thiopental (30 mg kg) and sacrificed by cervical dislocation to block the flow of blood. Immediately, mice were transferred to biological hood and their abdominal cavity was opened completely by making an incision on abdomen. In order to stop the bile flow toward duodenum, ampulla was located and clamped under dissection microscope. Then, distention of pancreas was carried out by injecting 3 ml of collagenase solution (1 mg/ml) through common bile duct. The distended pancreas was removed as a whole, transferred to a 50 ml tube and digested in collagenase solution at 37°C. After 15 min, digestion was stopped by placing the tube on ice and 20 ml of Hank’s Balanced Salt Solution (HBSS) was added to it. Thus the digested islets were washed with HBSS (two to three times) by centrifugation (1,000 rpm) for 1 min at 4°C. Finally, islets were purified by passing through a cell strainer (70 µm) and isolated manually (by hand picking) under stereomicroscope (Euromex, Arnhem, Netherlands). All the purification and isolation procedures were carried out in HBSS, containing no magnesium, calcium and phenol red.
Krebs-Ringer bicarbonate buffer (KRBB) was used as an incubation medium for islets and was composed of NaCl (118 mM), KCl (4.7 mM), CaCl2 (1.9 mM), MgSO4 (1.2 mM), NaHCO3 (25 mM), 4-(2-hydroxyethyl)-1-piperazineethanesulfonic acid (HEPES, 10 mM) and bovine serum albumin (0.1%). The pH of KRBB was maintained at 7.4. The isolated islets were size-matched and pre-incubated (3 islets/tube) for 45 min at 37°C in KRBB, supplemented with 3 mM glucose. Thereafter, incubation medium was replaced with fresh KRBB (containing 16.7 mM glucose) and islets were incubated for 60 min at 37°C with or without test substance(s). After incubation, supernatant was collected and stored at −40°C until further use. Finally, collected samples were properly diluted and insulin secretion was estimated with ultra-sensitive mouse insulin ELISA kit (Crystal Chem Inc., Downers Grove, United States) according to the manufacturer’s instructions. The absorbance was measured at 450 nm and insulin secretion was normalized for number of islets used. ([Hameed et al., 2018]).

Turning to `CCCCSc1nc2c(N)ncnc2n1[C@@H]1O[C@H](COP(=O)(O)OP(=O)(O)OP(=O)(O)O)[C@@H](O)[C@H]1O` [8-Bus-ATP], the inhibition constant (Ki) on h-NTPDase1 was 800 ± 200 nM.

For the compound `O=C1Nc2ccccc2C1=O` [isatin], in the test on mice pancreatic islets, the “Effect on glucose stimulated insulin secretion” value was “Neither suramin nor isatin had any significant effect”.
